Laboratory results: patent US5192672A, “Method for oxidizing hydrocarbons with a hydroxylase from a methane monooxygenase” (Amoco Corporation, priority 1991, dated 1993)
≈ marks a conversion by molar mass, not a printed value.

Legend:
[1] = target: T1, hydroxylase of methane monooxygenase (Methylosinus trichosporium, UniProt P27353); assay: Multiple turnover oxidation of hydrocarbon substrates using hydrogen peroxide; assay type: biochemical, Methylosinus trichosporium OB3b; conditions: H2O2 coupled
T1 construct: The novel high activity hydroxylase of the present invention was obtained from Methylosinus trichosporium OB3b; endogenous in cells; host or cells: Methylosinus trichosporium OB3b; hydroxylase purified from the bacteria
T1 sequence (P27353 1-526): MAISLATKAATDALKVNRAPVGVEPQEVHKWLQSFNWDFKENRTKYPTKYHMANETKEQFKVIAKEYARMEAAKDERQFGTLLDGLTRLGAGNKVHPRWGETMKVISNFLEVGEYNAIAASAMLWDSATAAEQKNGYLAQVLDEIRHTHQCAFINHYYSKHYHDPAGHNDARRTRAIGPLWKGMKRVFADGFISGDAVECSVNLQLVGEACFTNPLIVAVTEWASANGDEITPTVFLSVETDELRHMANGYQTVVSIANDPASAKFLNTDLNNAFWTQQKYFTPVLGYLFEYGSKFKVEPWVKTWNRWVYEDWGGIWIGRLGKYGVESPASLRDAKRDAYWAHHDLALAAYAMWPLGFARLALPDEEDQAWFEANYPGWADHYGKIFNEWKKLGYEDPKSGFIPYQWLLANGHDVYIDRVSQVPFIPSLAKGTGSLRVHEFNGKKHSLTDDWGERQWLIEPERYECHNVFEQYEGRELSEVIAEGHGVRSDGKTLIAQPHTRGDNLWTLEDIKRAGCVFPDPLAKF
T1 sequence (P27354 1-394 partner): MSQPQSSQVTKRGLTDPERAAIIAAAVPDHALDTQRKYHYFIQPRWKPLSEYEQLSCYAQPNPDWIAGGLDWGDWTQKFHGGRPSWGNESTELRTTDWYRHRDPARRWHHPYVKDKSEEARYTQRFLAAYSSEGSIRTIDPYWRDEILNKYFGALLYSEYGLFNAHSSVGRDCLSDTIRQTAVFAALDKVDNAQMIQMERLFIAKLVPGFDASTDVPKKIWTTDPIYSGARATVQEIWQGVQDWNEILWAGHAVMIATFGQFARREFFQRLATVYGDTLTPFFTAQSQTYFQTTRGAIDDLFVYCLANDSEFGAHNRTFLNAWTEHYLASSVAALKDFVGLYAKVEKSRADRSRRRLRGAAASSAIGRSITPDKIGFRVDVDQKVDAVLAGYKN
T1 sequence (P27355 1-169 partner): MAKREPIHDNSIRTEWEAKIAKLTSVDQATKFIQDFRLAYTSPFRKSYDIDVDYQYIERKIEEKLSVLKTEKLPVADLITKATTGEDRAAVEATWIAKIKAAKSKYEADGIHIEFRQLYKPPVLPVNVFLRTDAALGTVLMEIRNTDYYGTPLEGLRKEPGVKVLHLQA
Method: . Substrates were injected into the respective reaction vials as follows: gaseous substrates (3 ml) were injected into the headspace of the reaction vial; liquid substrates (50 μls) were injected directly into the protein solution. The protein solution and substrate were allowed to equilibrate for five minutes in a water bath shaker at 30° C. Each reaction was initiated by injection of H2 O2 (20 μl of 1.0 MH2 O2 in water) to a concentration of about 100 mM H2 O2. After an appropriate period (2 minutes) a portion of the reaction mixture was removed, the reaction terminated, and the sample prepared for analysis.
Samples were analyzed for products as follows: The benzene, substituted benzenes and pyridine samples were analyzed by High Pressure Liquid Chromatography (HPLC). The reaction in each sample was quenched by addition of 2 volumes of ethanol or 3% trichloroacetic acid which caused precipitation of the hydroxylase. The samples were centrifuged for two minutes (10,800×g) and the precipitated hydroxylase removed. A portion of each supernatant was injected into a Beckman HPLC equipped with a reverse-phase column (C18 matrix) and UV detection capability.
All other samples were analyzed by gas chromatography. Except for the methane sample, all analyses were performed as follows: The reaction in each sample was quenched by addition of an equal volume chloroform (CHCl3) followed by vortexing for a brief period. The sample was centrifuged for two minutes (10,800×g) to separate the CHCl3 layer from the sample solution. A portion of the CHCl3 layer was injected into a Hewlett Packard 5890A gas chromatograph (100% methylsilicone column matrix) for analysis of the products.
For the methane sample, the reaction was quenched by addition of 0.1M acid to a pH of 2.9. The resulting aqueous phase was separated from the hydroxylase using a YM30 Centricon ultrafiltration unit. The filtrate was analyzed for methanol by gas chromatography.
Products resulting from the various substrates were identified by comparison with standard compounds.

[2] = target: T2, complete methane monooxygenase (Methylosinus trichosporium, UniProt P27353); assay: Polarographic assay of methane monooxygenase activity with furan as substrate; assay type: biochemical, Methylosinus trichosporium OB3b
T2 construct: A soluble three-component methane monooxygenase from the Type II methanotroph Methylosinus trichosporium OB3b was purified to homogeneity; endogenous in cells; host or cells: Methylosinus trichosporium OB3b, grown on methane; components purified from cell-free extract
T2 sequence (P27353 1-526): T1 sequence (P27353 1-526)
T2 sequence (P27354 1-394 partner): T1 sequence (P27354 1-394 partner)
T2 sequence (P27355 1-169 partner): T1 sequence (P27355 1-169 partner)
Method: Enzyme Assays--Assays of bacterial cells were performed at 30° C. using cells harvested directly from the fermentor vessel. Methane oxidation was measured by gas chromatography by monitoring depletion of methane from the headspace of 30 ml reaction vials. Oxygen consumption was measured polarographically as described by Arciero et al. (J. Biol. Chem. 258, 14981-14991, 1983). The bacterial suspension was supplemented with 100 μM formaldehyde before gas chromatographic assays for conversion of propene to propene oxide in order to allow adequate regeneration of NADH by endogenous formaldehyde and formate dehydrogenases. Gas chromatographic and polarographic assays of the methane monooxygenase system were performed as described by Fox et al. (Biochem. Biophys. Res. Comm. 154, 165-170, 1988). Unless explicitly stated, the specific activity values reported for the enzyme components are those observed during the hydroxylation reaction in the presence of optimal concentrations of the other components of the methane monooxygenase. The optimal concentrations were determined by varying the concentration of one component relative to fixed concentrations of the other two components. In routine polarographic assays of methane monooxygenase activity, furan is an acceptable substrate with characteristics which facilitate the assay. […]

physchem = assay type: physicochemical; conditions: water, 30° C.
[3] = 90 psi propane, up to two days, t-butyl peroxide; cited from earlier work
methane monooxygenase = target: T3, methane monooxygenase (Methylococcus capsulatus, UniProt P22869); conditions: Table II, purified component from Methylococcus capsulatus (Bath); cited from earlier work
T3 construct: methane monooxygenases isolated from the Type I organism, Methylococcus capsulatus (Bath); host or cells: Methylococcus capsulatus (Bath)
T3 sequence (P22869 whole entry, looked up): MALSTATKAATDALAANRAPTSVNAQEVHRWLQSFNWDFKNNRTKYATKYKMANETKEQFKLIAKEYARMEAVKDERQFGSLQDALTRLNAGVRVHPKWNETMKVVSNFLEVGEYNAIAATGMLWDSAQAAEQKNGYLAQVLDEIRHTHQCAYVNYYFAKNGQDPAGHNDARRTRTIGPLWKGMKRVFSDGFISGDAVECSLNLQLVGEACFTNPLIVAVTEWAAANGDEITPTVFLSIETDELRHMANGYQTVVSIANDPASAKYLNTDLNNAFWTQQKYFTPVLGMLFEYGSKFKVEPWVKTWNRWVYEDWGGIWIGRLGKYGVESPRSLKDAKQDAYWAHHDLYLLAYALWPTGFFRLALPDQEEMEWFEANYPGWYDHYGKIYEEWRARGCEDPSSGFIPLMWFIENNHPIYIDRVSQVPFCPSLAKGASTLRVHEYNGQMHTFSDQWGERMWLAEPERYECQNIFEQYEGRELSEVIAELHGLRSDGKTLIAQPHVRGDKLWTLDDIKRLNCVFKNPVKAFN

CC1(C)CC1 [1,1-dimethylcyclopropane]
Relative Distribution (Percent), product 1-methylcyclobutanol [1]: 14% | Relative Distribution (Percent), product 3-methyl-3-buten-1-01 [1]: none detected | Relative Distribution (Percent), product Methylcyclopropylmethanol [1]: 86%

c1ccccc1 [Benzene]
Relative Distribution (Percent), product Phenol [1]: 100%

CCCC [Butane]
Relative Distribution (Percent), product 1-butanol [1]: 64% | Relative Distribution (Percent), product 2-butanol [1]: 36%

CC [Ethane]
Relative Distribution (Percent), product Ethanol [1]: 100%

CC(C)C [Isobutane]
Relative Distribution (Percent), product 2-methyl-1-propanol [1]: 61% | Relative Distribution (Percent), product 2-methyl-2-propanol [1]: 39%

CCC(C)C [Isopentane]
Relative Distribution (Percent), product 2-methyl-1-butanol [1]: 25% | Relative Distribution (Percent), product 2-methyl-2-butanol [1]: 41% | Relative Distribution (Percent), product 3-methyl-1-butanol [1]: 11% | Relative Distribution (Percent), product 3-methyl-2-butanol [1]: 24%

C [Methane]
Relative Distribution (Percent), product Methanol ([1]; about 100 mM H2O2, 2 minutes): 100%

O=[N+]([O-])c1ccccc1 [Nitrobenzene]
Relative Distribution (Percent), product m-Nitrophenol [1]: 53% | Relative Distribution (Percent), product o-Nitrophenol [1]: 5% | Relative Distribution (Percent), product p-Nitrophenol [1]: 42%

CCC [Propane]
Relative Distribution (Percent), product 1-propanol [1]: 15% | Relative Distribution (Percent), product 2-propanol [1]: 85%

C=CC [Propene]
Relative Distribution (Percent), product Propylene Oxide [1]: 100%

c1ccncc1 [Pyridine]
Relative Distribution (Percent), product Pyridine-N-oxide [1]: 100%

c1ccoc1 [furan]
Km ([2]; read-out: KM(app)): 0.02 mM | turnover number ([2]; relative to the hydroxylase): 7.6 s⁻¹ | solubility (physchem): 64 mM (≈ 4360 µg/mL)

Fe2 O(OAc)2 Cl2 (bipy)2
yield of 2-propanol from propane [3]: 8.8%

reductase from Methylococcus capsulatus (Bath): literature reductase, Colby et al. 1979
Specific activity (methane monooxygenase): 6000
